Calls of active or inactive are those of the source.
Columns and labels:
Aspartyl aminopeptidase = target: T1, Aspartyl aminopeptidase (Plasmodium falciparum 3D7, UniProt Q8I2J3)
T1 sequence (Q8I2J3 whole entry): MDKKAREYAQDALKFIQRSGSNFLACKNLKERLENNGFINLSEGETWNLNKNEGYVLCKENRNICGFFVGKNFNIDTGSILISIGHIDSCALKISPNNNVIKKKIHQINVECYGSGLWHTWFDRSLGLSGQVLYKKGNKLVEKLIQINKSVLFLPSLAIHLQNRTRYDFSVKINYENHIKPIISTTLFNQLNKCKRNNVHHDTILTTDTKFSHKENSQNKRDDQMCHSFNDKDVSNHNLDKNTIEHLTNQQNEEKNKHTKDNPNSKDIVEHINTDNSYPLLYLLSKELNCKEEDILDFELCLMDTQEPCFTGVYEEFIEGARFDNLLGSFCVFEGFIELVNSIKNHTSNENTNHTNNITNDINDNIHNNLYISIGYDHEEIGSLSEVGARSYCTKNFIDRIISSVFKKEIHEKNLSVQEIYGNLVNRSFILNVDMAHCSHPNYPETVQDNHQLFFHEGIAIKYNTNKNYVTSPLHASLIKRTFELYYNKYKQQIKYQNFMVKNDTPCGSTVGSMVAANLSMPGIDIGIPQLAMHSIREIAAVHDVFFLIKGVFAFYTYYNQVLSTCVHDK

Procathepsin L = Procathepsin L (Homo sapiens, UniProt P07711)
Procathepsin L, sequence (P07711 whole entry): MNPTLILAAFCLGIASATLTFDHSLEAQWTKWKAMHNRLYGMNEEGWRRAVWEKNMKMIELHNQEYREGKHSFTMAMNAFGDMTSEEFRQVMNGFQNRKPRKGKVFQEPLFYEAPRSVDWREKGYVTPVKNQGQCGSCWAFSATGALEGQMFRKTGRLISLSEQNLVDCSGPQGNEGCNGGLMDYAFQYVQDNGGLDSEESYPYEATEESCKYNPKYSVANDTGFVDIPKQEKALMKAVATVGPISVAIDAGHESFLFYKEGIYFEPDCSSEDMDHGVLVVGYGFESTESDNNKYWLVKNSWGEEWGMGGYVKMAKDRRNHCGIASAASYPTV

[1] = cytotoxicity in HEK-293T cells, dose response, cytotoxicity control for BCR NF-kB inhibitor project, luminescence, B-cell screen hits (AID 489021); assay type: functional, cell-based;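 note: HEK-293T cells carrying an NF-kB luciferase reporter; cells exposed to compound for about 14 hours before viability readout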
[2] = target: T2, Carboxy-terminal domain RNA polymerase II polypeptide A small phosphatase 1 (Homo sapiens, UniProt Q9GZU7); assay: inhibitors of CTDSP1, concentration-response testing, biochemical assay, absorbance-based, actives from ultra-high-throughput screening (AID 540297); assay type: functional
T2 sequence (Q9GZU7 whole entry): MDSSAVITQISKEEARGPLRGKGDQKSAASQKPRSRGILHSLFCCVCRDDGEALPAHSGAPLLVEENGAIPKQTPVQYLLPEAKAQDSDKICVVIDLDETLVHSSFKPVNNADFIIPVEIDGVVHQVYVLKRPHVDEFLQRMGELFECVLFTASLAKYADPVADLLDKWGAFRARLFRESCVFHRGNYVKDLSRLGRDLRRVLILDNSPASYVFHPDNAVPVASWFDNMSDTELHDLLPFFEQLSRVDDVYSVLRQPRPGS

[3] = inhibitors of firefly luciferase expression or activity, dose response, H4 neuroglioma cells, luminescence (AID 1990); assay type: functional, cell-based
[4] = Luminescence Cell-Based Dose Response HTS to Identify Inhibitors of 5'UTR Stem-Loop Driven Prion Protein mRNA Translation in H4 Neuroglioblastoma Cells. [Related pubchem assays: 1827 (Project Summary), 1813 (Primary HTS)]; assay type: functional
BJ [5] = assay: cytotoxicity toward BJ-TERT fibroblasts, dose response, cell-based, RAS-independent, luminescence (AID 1933); assay type: functional; conditions: Homo sapiens
BJ [6] = assay: cytotoxicity toward Ras-transformed BJeLR fibroblasts, dose response, cell-based, alamar blue fluorescence, cherrypicked samples (AID 2631); assay type: functional; conditions: Homo sapiens;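 note: confirmatory dose-response assay in RAS-dependent BJ fibroblasts engineered with TERT, LT and ST, with cytotoxicity read by fluorescence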
[7] = target: T3, Zinc finger protein mex-5 (Caenorhabditis elegans, UniProt Q9XUB2); assay: MEX-5/TCR-2 RNA interaction inhibitors, dose response, biochemical, C. elegans, fluorescence polarization (AID 1960)
T3 sequence (Q9XUB2 whole entry): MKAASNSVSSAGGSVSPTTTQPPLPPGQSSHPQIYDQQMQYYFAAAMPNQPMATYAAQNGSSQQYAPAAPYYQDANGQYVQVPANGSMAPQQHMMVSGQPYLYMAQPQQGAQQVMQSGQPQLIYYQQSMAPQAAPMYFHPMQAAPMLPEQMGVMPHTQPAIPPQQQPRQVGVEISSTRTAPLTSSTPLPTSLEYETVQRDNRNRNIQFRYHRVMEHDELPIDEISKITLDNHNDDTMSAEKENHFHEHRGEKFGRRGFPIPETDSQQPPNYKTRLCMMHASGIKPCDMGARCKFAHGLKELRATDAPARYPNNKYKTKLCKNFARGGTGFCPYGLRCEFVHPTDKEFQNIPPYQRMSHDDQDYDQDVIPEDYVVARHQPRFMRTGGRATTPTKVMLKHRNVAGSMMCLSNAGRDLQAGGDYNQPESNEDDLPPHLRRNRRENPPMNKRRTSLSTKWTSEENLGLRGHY

[8] = target: T4, RNA-binding protein pos-1 (Caenorhabditis elegans, UniProt G5EF15); assay: inhibitors of POS-1/mex-3 RNA binding, dose response, biochemical, fluorescence polarization (AID 1964);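 note: purified POS-1 fused to maltose binding protein made in E. coli; potency of compounds blocking POS-1 binding to fluorescent RNA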
T4 sequence (G5EF15 whole entry): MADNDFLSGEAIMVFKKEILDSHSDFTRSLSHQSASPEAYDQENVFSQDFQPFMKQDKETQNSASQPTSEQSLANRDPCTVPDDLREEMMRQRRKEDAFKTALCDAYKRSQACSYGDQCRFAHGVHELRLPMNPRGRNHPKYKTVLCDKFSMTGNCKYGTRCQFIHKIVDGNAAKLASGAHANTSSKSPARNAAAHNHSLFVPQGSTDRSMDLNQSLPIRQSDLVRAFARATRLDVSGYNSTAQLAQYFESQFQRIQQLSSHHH

BJ [9] = assay: cells; assay type: functional, cell-based; conditions: Homo sapiens
BJ [10] = assay: cytotoxicity toward BJ-TERT-LT-ST fibroblasts, dose response, cell-based, RAS-independent, luminescence (AID 1935); assay type: functional; conditions: Homo sapiens;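 note: BJ fibroblasts immortalized with TERT plus LT and ST oncogenes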
[11] = cytotoxicity toward DRD oncogenic fibroblasts, dose response, cell-based, non-viral oncogenic, luminescence (AID 1934); assay type: functional; conditions: Homo sapiens
Cytochrome P450 3A4 = Cytochrome P450 3A4 (Homo sapiens, UniProt P08684);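 note: CYP3A4 tested as one member of a cytochrome P450 panel screen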
Cytochrome P450 3A4, sequence (P08684 whole entry): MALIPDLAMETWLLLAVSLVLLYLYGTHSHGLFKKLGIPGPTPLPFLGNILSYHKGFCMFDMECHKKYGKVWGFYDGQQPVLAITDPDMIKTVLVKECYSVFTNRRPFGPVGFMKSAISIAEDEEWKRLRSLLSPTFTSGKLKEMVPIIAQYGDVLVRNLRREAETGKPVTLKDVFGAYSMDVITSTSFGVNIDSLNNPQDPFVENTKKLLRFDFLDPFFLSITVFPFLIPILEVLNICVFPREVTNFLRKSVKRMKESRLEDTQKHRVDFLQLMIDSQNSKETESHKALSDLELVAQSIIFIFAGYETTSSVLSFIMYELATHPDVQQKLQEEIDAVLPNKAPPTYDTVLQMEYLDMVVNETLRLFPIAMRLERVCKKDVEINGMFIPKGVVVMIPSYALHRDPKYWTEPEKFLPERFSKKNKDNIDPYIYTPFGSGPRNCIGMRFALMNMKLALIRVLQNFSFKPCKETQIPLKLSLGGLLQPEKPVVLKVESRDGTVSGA

Cytochrome P450 2C19 = Cytochrome P450 2C19 (Homo sapiens, UniProt P33261); assay: Cytochrome panel assay with activity outcomes. Panel member name: p450-cyp2c19 Compounds with AC50 equal or less than 10 uM are considered active; assay type: functional; conditions: read-out: AC50
Cytochrome P450 2C19, sequence (P33261 whole entry): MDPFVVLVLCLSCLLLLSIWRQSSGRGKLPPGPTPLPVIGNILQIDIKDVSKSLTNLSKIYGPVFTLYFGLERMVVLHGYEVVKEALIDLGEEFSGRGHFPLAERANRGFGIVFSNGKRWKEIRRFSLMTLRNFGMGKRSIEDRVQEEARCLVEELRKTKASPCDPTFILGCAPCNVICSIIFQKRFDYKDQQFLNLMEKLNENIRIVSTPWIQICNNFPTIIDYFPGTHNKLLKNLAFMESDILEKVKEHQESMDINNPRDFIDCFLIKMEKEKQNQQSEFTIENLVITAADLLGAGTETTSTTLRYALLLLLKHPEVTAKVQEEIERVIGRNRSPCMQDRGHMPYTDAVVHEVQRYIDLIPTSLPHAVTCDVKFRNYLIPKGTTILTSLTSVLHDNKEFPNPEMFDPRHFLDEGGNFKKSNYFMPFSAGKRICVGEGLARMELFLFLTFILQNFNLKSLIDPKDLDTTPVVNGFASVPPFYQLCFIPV

[12] = target: T5, Replicative DNA helicase DnaB (Mycobacterium tuberculosis, UniProt P9WMR3); assay: DnaB intein splicing inhibitors, dose response, biochemical, cell-free fluorescence (AID 449749); assay type: functional
T5 sequence (P9WMR3 whole entry): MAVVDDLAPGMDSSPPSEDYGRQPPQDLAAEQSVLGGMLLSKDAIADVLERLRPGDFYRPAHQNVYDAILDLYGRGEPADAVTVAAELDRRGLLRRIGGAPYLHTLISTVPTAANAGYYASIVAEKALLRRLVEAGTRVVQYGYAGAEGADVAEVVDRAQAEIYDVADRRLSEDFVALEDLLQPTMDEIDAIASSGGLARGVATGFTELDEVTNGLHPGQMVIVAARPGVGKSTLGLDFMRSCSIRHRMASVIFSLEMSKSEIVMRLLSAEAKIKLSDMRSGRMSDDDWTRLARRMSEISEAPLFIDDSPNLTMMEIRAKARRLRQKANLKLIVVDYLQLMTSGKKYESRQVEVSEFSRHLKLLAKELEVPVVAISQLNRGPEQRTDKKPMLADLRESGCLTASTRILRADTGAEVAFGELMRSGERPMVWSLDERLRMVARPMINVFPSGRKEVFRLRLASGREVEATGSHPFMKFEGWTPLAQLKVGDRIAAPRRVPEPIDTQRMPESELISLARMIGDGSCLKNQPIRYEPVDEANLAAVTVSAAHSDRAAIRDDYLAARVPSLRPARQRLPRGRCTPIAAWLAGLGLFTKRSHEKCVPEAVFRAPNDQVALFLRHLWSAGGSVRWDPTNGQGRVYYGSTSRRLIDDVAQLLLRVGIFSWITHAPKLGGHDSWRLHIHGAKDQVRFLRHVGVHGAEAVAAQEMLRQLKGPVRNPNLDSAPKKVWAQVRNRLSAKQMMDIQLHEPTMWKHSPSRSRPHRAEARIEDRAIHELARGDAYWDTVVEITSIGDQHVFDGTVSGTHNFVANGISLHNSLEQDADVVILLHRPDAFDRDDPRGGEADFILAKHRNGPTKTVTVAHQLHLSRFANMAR

[13] = growth suppression of PTEN-null colon cells, dose response, cell-based, HCT116 PTEN knockout (AID 1047); assay type: functional;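 note: HCT116 colon tumor cells with PTEN knocked out; cells exposed to compound for 60 hours before readout; potency for loss of cell viability measured by luminescence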
Vero = assay: cells; assay type: functional; conditions: Chlorocebus sabaeus
[14] = THP-1 cell cytotoxicity, dose response, cytotoxicity control for non-replicating M. tuberculosis project (AID 489025); assay type: functional
[15] = cytotoxicity in KRAS-transformed pancreatic duct cells, primary screen, cell-based, fluorescence, HTS (AID 431); assay type: functional; conditions: Homo sapiens;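 note: cell line used: HPDE-C7K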
[16] = growth suppression of beta-catenin-knockout colon cells, dose response, cell-based, HCT116, human colon tumor (AID 1045); assay type: functional;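 note: HCT116 colon tumor cells with beta catenin knocked out; cells exposed to compound for 60 hours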
cells = assay type: functional
[17] = cytotoxicity in HPDE-C7 cells, cell-based, fluorescence, HTS (AID 430); assay type: functional; conditions: Homo sapiens
[18] = Vero E6 cell cytotoxicity, dose response, cytotoxicity control for non-replicating M. tuberculosis project, secondary assay (AID 492998); assay type: functional, VeroE6; conditions: Vero C1008
[19] = Luminescence Cell-Based Dose Confirmation HTS to Identify Inhibitors of Platelet Dense Granule Release. [Related pubchem assays: 1663 (Primary HTS), 1678 (Summary of Project)]; assay type: functional
[20] = target: Luciferin 4-monooxygenase (Photinus pyralis, UniProt P08659); assay: firefly luciferase enzyme inhibitors, dose response, biochemical, luminescence (AID 1891)
Luciferin 4-monooxygenase, sequence (P08659 whole entry): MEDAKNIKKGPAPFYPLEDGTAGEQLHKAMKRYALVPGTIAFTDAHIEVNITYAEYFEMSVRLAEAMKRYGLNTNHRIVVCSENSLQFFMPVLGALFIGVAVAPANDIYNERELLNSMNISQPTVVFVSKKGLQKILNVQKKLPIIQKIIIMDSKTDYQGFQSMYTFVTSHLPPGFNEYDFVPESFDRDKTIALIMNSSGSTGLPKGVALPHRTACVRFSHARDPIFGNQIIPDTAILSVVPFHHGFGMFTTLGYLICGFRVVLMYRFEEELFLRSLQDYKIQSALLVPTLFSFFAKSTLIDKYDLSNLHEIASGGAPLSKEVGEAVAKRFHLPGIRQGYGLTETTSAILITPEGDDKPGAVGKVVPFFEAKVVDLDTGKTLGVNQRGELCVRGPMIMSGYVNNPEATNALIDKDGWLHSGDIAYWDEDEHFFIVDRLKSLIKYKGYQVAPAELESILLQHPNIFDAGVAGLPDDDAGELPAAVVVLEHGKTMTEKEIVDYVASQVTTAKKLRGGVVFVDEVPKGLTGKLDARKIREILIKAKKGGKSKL

Protein RecA = target: T6, Protein RecA (Mycobacterium tuberculosis, UniProt P9WHJ3); assay: Fluorescence Cell-Free Homogeneous Dose Retest to Identify Inhibitors of RecA-Intein Splicing Activity. [Related pubchem assays (depositor defined):AID2097, AID2223, AID489010, AID492950]; assay type: functional
T6 sequence (P9WHJ3 whole entry): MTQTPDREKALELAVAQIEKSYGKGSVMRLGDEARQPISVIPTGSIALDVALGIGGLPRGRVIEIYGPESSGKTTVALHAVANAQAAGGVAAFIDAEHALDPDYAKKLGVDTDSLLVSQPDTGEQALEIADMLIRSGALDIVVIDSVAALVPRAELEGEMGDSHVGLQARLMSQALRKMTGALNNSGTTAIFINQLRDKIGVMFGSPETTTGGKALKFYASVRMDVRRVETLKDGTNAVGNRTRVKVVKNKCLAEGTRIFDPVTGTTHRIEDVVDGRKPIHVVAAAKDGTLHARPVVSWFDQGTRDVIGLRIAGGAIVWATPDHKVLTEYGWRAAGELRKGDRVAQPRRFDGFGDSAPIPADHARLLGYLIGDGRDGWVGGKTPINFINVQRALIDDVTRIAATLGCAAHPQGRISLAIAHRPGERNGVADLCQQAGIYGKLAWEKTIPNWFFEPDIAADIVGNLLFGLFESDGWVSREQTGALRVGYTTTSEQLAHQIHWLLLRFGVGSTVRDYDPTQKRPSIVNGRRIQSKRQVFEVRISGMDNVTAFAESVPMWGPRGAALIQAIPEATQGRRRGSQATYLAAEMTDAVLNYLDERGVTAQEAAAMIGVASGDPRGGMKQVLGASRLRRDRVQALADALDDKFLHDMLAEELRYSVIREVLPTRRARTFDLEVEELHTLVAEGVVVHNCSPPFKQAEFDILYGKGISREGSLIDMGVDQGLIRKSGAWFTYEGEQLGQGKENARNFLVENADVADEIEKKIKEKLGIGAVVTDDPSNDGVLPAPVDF

[21] = inhibitors of SNCA 5'UTR-driven reporter translation, confirmation, H4 neuroglioma cells, luminescence (AID 1988); assay type: functional, cell-based

SMILES: CC1(C)C2([N+](=O)[O-])CN3CC1([N+](=O)[O-])CN(C2)C3c1ccc(O)c(O)c1 (configuration not stated)
- IC50 (Aspartyl aminopeptidase): 1.19 µM (active)
- IC50 (Procathepsin L): > 59.6 µM (not active)

SMILES: COc1ccc(/C=C2\SC(=S)N(CCC(=O)Nc3ccc(C(=O)O)cc3)C2=O)cc1
- IC50 [1]: > 80 µM (inactive)
- IC50 [2]: 2.63 µM (active)

SMILES: Cc1nc2cc(-c3ccc(Cl)cc3)nn2c(C)c1CCC(=O)NC(C)c1ccc2c(c1)OCCO2 (configuration not stated)
- IC50 [1]: > 80 µM (inactive)
- EC50 [3]: < 0.1 µM (active)
- EC50 [4]: 11.6 µM (active)

SMILES: Cc1ccc(-c2nn3c(C)nnc3c3ccccc23)cc1S(=O)(=O)N1CCN(CCO)CC1
- IC50 [1]: > 80 µM (inactive)

SMILES: O=C(Nc1cccc(Cl)c1Cl)Nn1cnnc1
- IC50 (Aspartyl aminopeptidase): 0.631 µM (active)
- IC50 (Procathepsin L): > 59.6 µM (not active)

SMILES: CCc1ccc(/C=C2/SC(=S)N(CCC(=O)Nc3cccnc3)C2=O)cc1
- IC50 [1]: > 80 µM (inactive)
- EC50 (BJ [5]): 2.88 µM (inconclusive)
- EC50 (BJ [6]): > 66.7 µM (inactive)
- EC50 [7]: > 300 µM (inconclusive)
- EC50 [8]: 141 µM (active)
- EC50 (BJ [9]): > 150 µM (inconclusive)
- EC50 (BJ [10]): > 75 µM (inconclusive)
- EC50 [11]: 12.8 µM (active)

SMILES: Cc1ccc(N2C(=O)/C(=C/Nn3cnnc3)c3ccccc3C2=O)cc1
- IC50 (Aspartyl aminopeptidase): 1.67 µM (active)
- AC50 (Cytochrome P450 3A4): 15.8 µM (inconclusive)
- IC50 (Procathepsin L): > 59.6 µM (not active)
- AC50 (Cytochrome P450 2C19): 10 µM (inconclusive)

SMILES: Cc1cccc(OCCN2CSC(=S)N(C)C2)c1
- AC50 [12]: 14.7 µM (active)
- EC50 [13]: 7.66 µM (active)
- CC50 (Vero): 7.62 µM (active)
- CC50 [14]: 11.8 µM (active)
- EC50 [15]: 6.24 µM (active)
- EC50 [16]: 4.21 µM (active)
- IC50 (cells): 10.4 µM (active)
- EC50 [17]: 6.23 µM (active)
- CC50 [18]: 6.85 µM (active)
- EC50 [19]: > 112 µM (not active)
- EC50 [20]: > 112 µM (not active)
- EC50 (Protein RecA): 12.5 µM (active)

SMILES: Cc1ccc(N=C(S)Nn2cnnc2)c(C)c1
- IC50 (Aspartyl aminopeptidase): 2.11 µM (active)
- IC50 (Procathepsin L): > 59.6 µM (not active)

SMILES: Cc1cc(C)cc(C(=O)n2cnnc2N)c1
- IC50 (Aspartyl aminopeptidase): 2.89 µM (active)
- IC50 (Procathepsin L): > 59.6 µM (not active)

SMILES: Cc1ccc(CSc2nnc(SCC(=O)N/N=C/C=C/c3ccccc3[N+](=O)[O-])s2)cc1
- IC50 [1]: > 80 µM (inactive)
- EC50 [3]: 9.7 µM (active)
- EC50 [4]: 12.9 µM (active)
- EC50 [21]: 12.1 µM (active)
